# Data published in patent US10328062B2, “Biomarkers and use of MET inhibitor for treatment of cancer” (AMGEN, INC., priority 2014, dated 2019).
# Like-named read-outs stand apart in the source and are kept apart here.
# What was measured:
# MKN-45 cells = assay: Immunoblot analysis of apoptotic markers; assay type: cell-based, Human; conditions: 30 nM, 24 hours
# Method: (§1) Cells were seeded in 10 cm dishes at varying densities and allowed to adhere by incubating at 37° C. and 5% CO2 overnight. […] Cells were harvested in 250 μL lysis buffer containing protease and phosphatase inhibitors. For suspension cell lines, cells were pelleted prior to lysis buffer addition. Protein concentrations for individual lysates were measured using a BCA protein assay. 25 μg of protein lysate per sample was resolved on Life Technologies (Carlsbad, Calif.) NuPAGE Bis-Tris gels per manufacturer's. Samples were transferred to nitrocellulose membranes for Western blot analysis. Membranes were blocked in 5% milk prepared in TBST for 1 hour at room temperature. Total and phospho-specific antibodies for specified endpoints were used at 1:1000 dilutions in 5% milk/TBST (total) or 5% BSA/TBST (phospho). Membranes were incubated in the presence of appropriate primary antibody overnight at 4° C. Secondary anti-species-IgG HRP conjugated antibodies were diluted 1:5000 in 5% milk/TBST and incubated in the presence of membranes for 1 hour at room temperature. Membranes were exposed to Thermo Scientific (Waltham, Mass.) Super Signal PICO West ECL detection reagent per manufacturer's recommended protocol and exposed to film to document signal.
# (§2) Antibodies detecting total and phospho-MET (Y1234/1235), phospho-Gab1 (Y627), total and phospho-AKT (S473), total and phospho-ERK (T202/Y204), cleaved caspase-3, and cleaved PARP were purchased from Cell Signaling Technologies (Beverly, Mass.). The total β-actin antibody was purchased from Thermo Scientific (Waltham, Mass.). Both secondary anti-rabbit and anti-mouse IgG-HRP conjugated antibodies were purchased from Thermo Scientific (Waltham, Mass.).
# (§3) Flow cytometry cell cycle analysis of MET amplified gastric cancer cell line MKN-45 is represented in FIG. 6. […] BrdU labeling was performed during the final 2 hours of compound treatment. […] Cells were then analyzed by flow cytometry to document effects on the cell cycle. […] Subsequent lysates were analyzed by SDS-PAGE and immunoblot using antibodies detecting cleaved PARP, cleaved caspase-3 and β-actin.
# SNU-5 cells = assay: Immunoblot analysis of apoptotic markers; assay type: cell-based, Human; conditions: 30 nM, 24 hours
# Method: as §1, §2, §3
# SNU-620 cells = assay: Immunoblot analysis of apoptotic markers; assay type: cell-based, Human; conditions: 30 nM, 24 hours
# Method: as §1, §2, §3
# [1] = Phase 1 Study 20101132 preliminary PK analysis; conditions: human, in vivo
# Method: (§4) Safety is assessed according to Common Terminology Criteria for Adverse Events (CTCAE) v4.0 criteria and the DLT (dose limiting toxicity) window is 28 days. Dose escalation is proceeding with a modified 3+3+3 design, which defines the MTD (maximum tolerated dose) to have been exceeded when ≥3 subjects in a cohort experience a DLT.
# Dose escalation consists of up to 8 cohorts of 3 to 9 evaluable subjects each. Initially, up to 4 subjects may enroll into a cohort. […] At least 6 subjects will be treated at the MTD. An expansion cohort of up to 20 subjects at the MTD (determined in the dose escalation portion) will be considered to obtain further safety, PK, and efficacy data.
# [2] = Phase 1 Study 20101132 safety; assay type: in vivo
# Method: Eligible subjects have disease that is refractory or resistant to standard treatments or disease for which no standard therapy exists.
# as §4
# Enrollment is proceeding as follows: if no DLT is observed within the first 28 days in the initial 3 to 4 subjects of a cohort, dose escalation to the next higher dose level cohort will occur. If 1 DLT is observed, 3 additional subjects will be enrolled at the same dose level for a total of at least 6 subjects. If no further DLT(s) are observed, escalation to the next higher dose level cohort will occur. If a second DLT is observed, 3 additional subjects will be enrolled at the same dose level for a total of at least 9 subjects. If no further DLTs are observed, dose escalation to the next higher dose level will occur. If ≥3 DLTs are observed in the first 3 to 9 subjects, then enrolment stops at the third DLT observation and enrolment into a cohort at a lower dose level will be considered.
# Dose escalation consists of up to 8 cohorts of 3 to 9 evaluable subjects each. Initially, up to 4 subjects may enroll into a cohort. The planned cohort dose levels are as follows: QD cohorts, cohort 1, 25 mg; cohort 2, 50 mg; cohort 3, 100 mg; cohort 3A, 150 mg; cohort 4, 200 mg; cohort 5, 300 mg; cohort 6, 400 mg; and cohort 7, 500 mg; BID cohorts, cohort B1 100 mg, cohort B2 150 mg, cohort B3 200 mg. The MTD is defined as the highest dose level with an observed incidence of DLT in <33% of subjects enrolled in a cohort. At least 6 subjects will be treated at the MTD. An expansion cohort of up to 20 subjects at the MTD (determined in the dose escalation portion) will be considered to obtain further safety, PK, and efficacy data.
# The 300-mg dose was identified as an MTD for QD dosing schedule and the recommended phase 2 dose. Twice daily dose escalation is currently ongoing and the MTD has not yet been determined as of the data cutoff date. As of the data cutoff date of 23 Jul. 2014, tumor-response data were available from 84 subjects in Study 20101132, including data on 62 subjects with >1 post-screening Response Evaluation Criteria in Solid Tumors (RECIST) tumor measurement by central read (22 subjects had screening data only). […] Of these 7 responders, 6 had gastric, gastroesophageal junction (GEJ) or esophageal adenocarcinoma with evidence of MET amplification identified by fluorescence in-situ hybridization assay performed by an experienced local laboratory per regulatory guideline.
structure (smiles),measurement,setting,value
"COCCOc1cnc2ccn([C@H](C)c3nnc4c(F)cc(-c5cnn(C)c5)cn34)c(=O)c2c1 [Compound M, 6-{(1R)-1-[8-fluoro-6-(1-methyl-1H-pyrazol-4-yl)[1,2,4]triazolo[4,3-a]pyridin-3-yl]ethyl}-3-(2-methoxyethoxy)-1,6-naphthyridin-5(6H)-one]",cleaved PARP and cleaved caspase-3 levels,MKN-45 cells,No induction of cleaved PARP or cleaved caspase-3
same,cleaved PARP and cleaved caspase-3 levels,SNU-5 cells,clear induction of both cleaved PARP and cleaved caspase-3
same,cleaved PARP and cleaved caspase-3 levels,SNU-620 cells,elevated cleaved PARP and cleaved caspase-3 levels
same,half-life,"[1]; oral, 43 subjects, once daily doses of 25 to 400 mg, tablet formulation, read-out: mean estimates of T1/2,z",4.6 to 7.4 h
same,concentration at 28 days,"[1]; oral, cohort 3 (100 mg) after 28 days of dosing, read-out: human mean trough concentration",131 ng/mL
same,half-life,"[1]; 24 subjects, daily oral doses of up to 200 mg, as of 20 Aug. 2012, read-out: Mean estimates of elimination half-life",4.6 to 6.9 h
same,MTD and recommended phase 2 dose,[2]; QD dosing schedule,300 mg
same,adverse event: anemia,"[2]; human, in vivo",21.1%
same,adverse event: aspartate aminotransferase (AST) increased,"[2]; human, in vivo",10%
same,adverse event: back pain,"[2]; human, in vivo",15.6%
same,adverse event: constipation,"[2]; human, in vivo",23.3%
same,adverse event: decreased appetite,"[2]; human, in vivo",16.7%
same,adverse event: diarrhea,"[2]; human, in vivo",15.6%
same,adverse event: dizziness,"[2]; human, in vivo",10%
same,adverse event: dry skin,"[2]; human, in vivo",12.2%
same,adverse event: dyspnea,"[2]; human, in vivo",15.6%
same,adverse event: fatigue,"[2]; human, in vivo",40%
same,adverse event: headache,"[2]; human, in vivo",64.4%
same,adverse event: hypoalbuminemia,"[2]; human, in vivo",20%
same,adverse event: myalgia,"[2]; human, in vivo",12.2%
same,adverse event: nausea,"[2]; human, in vivo",43.3%
same,adverse event: peripheral edema,"[2]; human, in vivo",18.9%
same,adverse event: rash,"[2]; human, in vivo",11.1%
same,adverse event: vomiting,"[2]; human, in vivo",26.7%
